Where no end group is shown, it is not given here.
Tested on: T84 monolayers
From the text: T84 cells are a human colonic epithelial cell line that differentiates and creates tight junctions. T84 cells are a model for colonic inflammation.

**Q.** How did the “concentration dependence of the effect of protecting T84 monolayers from disruption by Streptococcus KS47” value (FIG. 3) turn out when GGVLVQPG (SEQ ID NO:1) [Larazotide] was run?
**A.** The value was “concentration dependent”.

**Q.** And the “protection of T84 monolayers from disruption by Shigella” value (T84 human colonic epithelial cell line, FIG. 1)?
**A.** The value was “does not protect”.

Source: patent US20190358288A1, “COMPOSITIONS AND METHODS FOR TREATING OR PREVENTING ENVIRONMENTAL ENTEROPATHY” (INNOVATE BIOPHARMACEUTICALS, INC., priority 2017, published 2019)
